Legend:
[1] = tested on: NCI-H2122 cells (NSCLC, G12C); assay: NCI-H2122 CTG proliferation assay (120 h); assay type: cell-based; details: Homo sapiens, NCI-H2122, CellTiter-Glo
Experimental: The CTG assay is designed to measure quantitatively the proliferation of NCI-H2122 cells (ATCC CRL-5985), using the CellTiter Glow Assay Kit (Promega G7571). Cells are grown in RPMI medium (ATCC) supplemented with Fetal Calf Serum (Life Technologies, Gibco BRL, Cat. No. 10270-106). On “day 0” 200 NCI-H2122 cells are seeded in 60 μL RPMI ATCC+10% FCS+ Penstrep in a black 384-well plate, flat and clear bottom (Greiner, PNr. 781091). Cells are then incubated in the plates at 37° C. in a CO2 incubator overnight. On day 1, compounds (10 mM stock in DMSO) are added with the ECHO acoustic liquid handler system (Beckman Coulter), including DMSO controls. Plates are incubated for 120 h, and cell viability is measured using CellTiter-Glo luminescent cell viability reagent (Promega product code G7570). Viability (stated as percent of control) is defined as relative luminescence units RLU of each well divided by the RLU of cells in DMSO controls. IC50 values are determined from viability measurements by non-linear regression using a four parameter model.
IC50 values of representative compounds according to the invention measured with these assays in the indicated cell lines: […]

Caco-2 assay = assay type: in vitro ADME; details: human, 10 μM compound; for Papp A→B at 90 min, 10 μM: apical to basolateral, pH 7.4, read-out: Caco PappAB; for efflux ratio at 90 min, 10 μM: efflux ratio PappBA/PappAB, pH 7.4, read-out: Caco ER
Description: The assay provides information on the potential of a compound to pass the cell membrane, on the extent of oral absorption as well as on whether the compound is actively transported by uptake and/or efflux transporters. Permeability measurements across polarized, confluent Caco-2 cell monolayers grown on permeable filter supports (Corning, catalog #3391) are used. […] The receiver and donor compartments contain 0.25% bovine serum albumine (BSA) in assay buffer. Passive diffusion and/or active transport of compounds across the monolayer is measured in both apical to basolateral (a-b) and basolateral to apical (b-a) direction. a-b permeability (PappAB) represents drug absorption from the intestine into the blood and b-a permeability (PappBA) drug secretion from the blood back into the intestine via both passive permeability as well as active transport mechanisms mediated by efflux and uptake transporters that are expressed on the Caco-2 cells. After a pre-incubation of 25-30 min at 37° C., at predefined time points (0, 30, 60 and 90 min), samples were taken from the receiver and donor compartment, respectively. Concentrations of test compounds in samples were measured by HPLC/MS/MS, samples from the donor compartment were diluted 1:50 (v:v) with assay buffer, samples from receiver compartment were measured without dilution.
Apparent permeabilities in a-b (PappAB) and b-a (PappBA) directions are calculated according to the formula:
[formula] • Vrec [mL]: buffer volume in receiver compartment • Cdon [μmol/mL]: concentration of test compound in donor compartment at t=0 • ΔCrec: difference between concentrations of test compound in receiver compartment at start and end of incubation time • Δt: Incubation time • Vrec·ΔCrec/Δt [μmol/min]: Amount of compound transferred to receiver compartment per time • A [cm^2]: filter surface
Caco-2 efflux ratios (ER) are calculated as the ratio of PappBA/PappAB.
Data obtained with the disclosed assay for a selection of compounds (I) according to the invention: […]

SMILES | IC50 [1] [nM] | Papp A→B at 90 min, 10 μM (Caco-2 assay) [×10⁻⁶ cm/s] | efflux ratio at 90 min, 10 μM (Caco-2 assay)
C[C@H](Oc1nc(-c2noc3c2CCC[C@@]32CCCc3sc(N)c(C#N)c32)cc(N2C[C@H](C)N(C(=O)/C=C/c3cccnc3)[C@@H](C)C2)n1)[C@@H]1CCCN1C [Ib-8] | 999 |  | 
C=CC(=O)N1[C@@H](C)CN(c2cc(O[C@@H](C)[C@@H]3CCCN3C)nc(-c3noc4c3CCC[C@@]43CCCc4sc(N)c(C#N)c43)n2)C[C@@H]1C [Ib-3] |  | 6.3 | 3
COC/C=C/C(=O)N1[C@@H](C)CN(c2cc(-c3noc4c3CCC[C@@]43CCCc4sc(N)c(C#N)c43)nc(O[C@@H](C)[C@@H]3CCCN3C)n2)C[C@@H]1C [Ib-9] | 2260 | 2.4 | 7.5
C=CC(=O)N1[C@@H](C)CN(c2cc(O[C@@H](C)[C@@H]3CCCN3C)nc(-c3onc4c3CCC[C@@]43CCCc4sc(N)c(C#N)c43)n2)C[C@@H]1C [Ia-2] | 2 | 2.9 | 8.6
C=C(F)C(=O)N1[C@@H](C)CN(c2cc(O[C@@H](C)[C@@H]3CCCN3C)nc(-c3onc4c3CCC[C@@]43CCCc4sc(N)c(C#N)c43)n2)C[C@@H]1C [Ia-1] |  | 4.4 | 3.6
C[C@H](Oc1nc(-c2noc3c2CCC[C@@]32CCCc3sc(N)c(C#N)c32)cc(N2C[C@H](C)N(C(=O)/C=C/CF)[C@@H](C)C2)n1)[C@@H]1CCCN1C [Ib-7] | 190 | 2.4 | 10.4
C[C@H](Oc1cc(N2C[C@H](C)N(C(=O)/C=C/CF)[C@@H](C)C2)nc(-c2noc3c2CCC[C@@]32CCCc3sc(N)c(C#N)c32)n1)[C@@H]1CCCN1C [Ib-1] | 29 | 0.8 | 28.6
C=CC(=O)N1[C@@H](C)CN(c2cc(-c3onc4c3CCC[C@@]43CCCc4sc(N)c(C#N)c43)nc(O[C@@H](C)[C@@H]3CCCN3C)n2)C[C@@H]1C [Ia-4] | 4 | 1.3 | 30.7
C=CC(=O)N1CCN(c2cc(O[C@@H](C)[C@@H]3CCCN3C)nc(-c3noc4c3CCC[C@@]43CCCc4sc(N)c(C#N)c43)n2)CC12CC2 [Ib-2] | 19 |  | 18.2

Other lines, results leading:

IC50 [1] [nM] | Papp A→B at 90 min, 10 μM (Caco-2 assay) [×10⁻⁶ cm/s] | efflux ratio at 90 min, 10 μM (Caco-2 assay) | SMILES
35 | 9.2 | 1.7 | C=C(F)C(=O)N1[C@@H](C)CN(c2cc(-c3noc4c3CCC[C@@]43CCCc4sc(N)c(C#N)c43)nc(O[C@@H](C)[C@@H]3CCCN3C)n2)C[C@@H]1C [Ib-6]
21 | 11 | 1.1 | C=C(F)C(=O)N1[C@@H](C)CN(c2cc(O[C@@H](C)[C@@H]3CCCN3C)nc(-c3noc4c3CCC[C@@]43CCCc4sc(N)c(C#N)c43)n2)C[C@@H]1C [Ib-5]
96 |  |  | C=C(F)C(=O)N1[C@@H](C)CN(c2cc(-c3onc4c3CCC[C@@]43CCCc4sc(N)c(C#N)c43)nc(O[C@@H](C)[C@@H]3CCCN3C)n2)C[C@@H]1C [Ia-3]
 | 3.1 | 12.3 | C=CC(=O)N1[C@@H](C)CN(c2cc(-c3noc4c3CCC[C@@]43CCCc4sc(N)c(C#N)c43)nc(O[C@@H](C)[C@@H]3CCCN3C)n2)C[C@@H]1C [Ib-4]
